Reference: patent US20260078119A1, “DEGRADER COMPOUNDS AND USES THEREOF” (Bristol-Myers Squibb Company, priority 2024, published 2026)

What was measured:
[1] = tested on: CAL-51 cells; assay: CAL-51 Cell Proliferation Assay; type: cell-based; conditions: for EC50: Homo sapiens, 120 hours incubation, 10-point dose response, 4-fold dilutions starting at 10 μM, Cell-Titer-Glo, read-out: CAL-51 Prolif EC50; for CAL-51 Prolif Ymin: minimal percent of DMSO control observed in the concentrations tested (Ymin-obs), 120 hours
Excerpt: CAL-51 cells were obtained from Bristol Myers Squibb internal cell banks (originally sourced from DSMZ-German Collection of Microorganisms and Cell Cultures GmbH, Germany) and cultured in RPMI complete media (RPMI-1640, 10% Fetal Bovine serum, 1× Antibiotic-Antimycotic, and 1× Non-Essential Amino Acids). Compounds were dispensed into 384-well plates using an acoustic dispenser (Beckman Coulter Life Sciences, Carlsbad, CA) in duplicate with 14 compounds on each plate. For each compound, a 10-point dose response was printed at 4-fold dilutions starting at 10 μM. The DMSO concentration was kept constant for a final assay concentration of 0.1% per well assuming 50 uL final media volume. Compound plates were sealed and frozen at −20° C. until use.
For each assay batch, compound plates were thawed and allowed to reach room temperature, and cells were seeded at 350 cells per well in 50 μl complete RPMI media. After 120 hours of incubation at 37° C. and 5% CO2, cells were lysed by addition of 25 μL of Cell-Titer-Glo Reagent (Promega Corporation, Madison, WI), as per manufacturer's instructions, protected from light, shaken for 20 minutes, and total luminescence read by a CLARIOstar Plus plate reader (BMG LabTech, Cary, NC). Total luminescence signal is linearly correlated with cell number remaining in the well.
Luminescence data was processed per plate by subtracting reagent-only “blank” well luminescence from all measured values and calculating a percent of DMSO control value for each treatment well. Then, to determine the half-maximal effective concentration (EC50) values for cell growth inhibition, a four parameter logistic model was fit to the data for each DMSO-normalized compound: Sigmoidal Dose-Response Model: (FIT=(A+((B−A)/1+((C/x)^D)))) where C is the inflection point (EC50), D is the Hill slope, and A and B are the low and high limits of the fit respectively. The lower limit of the fit (value A) is referred to as Ymin-calculated. The minimal percent of DMSO control that is observed in the concentrations tested for each compound is labeled as “Ymin-obs”, and was recorded and reported in the tables. Sigmoidal fit curves were processed and evaluated using Dotmatics Atlas (Insightful Science, LLC, Boston, MA).

[2] = target: T1, FAK (Homo sapiens, UniProt Q05397); assay: FAK-HiBiT Degradation Assay; type: cell-based; conditions: for DC50: JHH-4-FAK-HiBiT clone d01 cells, two hours incubation, 10-point dose response, 3-fold dilution starting at 1 μM, Nano-Glo HiBiT luminescence, read-out: FAK HiBiT EC50; for FAK HiBiT Ymin: lower limit of the four parameter fit (value A), Ymax derived using DMSO control, JHH-4-FAK-HiBiT cells, two hours
T1 construct: homozygous knock-in of a HiBiT tag (Promega Corporation, Madison, WI) to the C-terminus of the FAK gene in its natural genomic locus; endogenous in cells; host or cells: JHH-4-FAK-HiBiT clone d01 (CRISPR-Cas9 knock-in at the endogenous locus)
T1 sequence (Q05397 whole entry): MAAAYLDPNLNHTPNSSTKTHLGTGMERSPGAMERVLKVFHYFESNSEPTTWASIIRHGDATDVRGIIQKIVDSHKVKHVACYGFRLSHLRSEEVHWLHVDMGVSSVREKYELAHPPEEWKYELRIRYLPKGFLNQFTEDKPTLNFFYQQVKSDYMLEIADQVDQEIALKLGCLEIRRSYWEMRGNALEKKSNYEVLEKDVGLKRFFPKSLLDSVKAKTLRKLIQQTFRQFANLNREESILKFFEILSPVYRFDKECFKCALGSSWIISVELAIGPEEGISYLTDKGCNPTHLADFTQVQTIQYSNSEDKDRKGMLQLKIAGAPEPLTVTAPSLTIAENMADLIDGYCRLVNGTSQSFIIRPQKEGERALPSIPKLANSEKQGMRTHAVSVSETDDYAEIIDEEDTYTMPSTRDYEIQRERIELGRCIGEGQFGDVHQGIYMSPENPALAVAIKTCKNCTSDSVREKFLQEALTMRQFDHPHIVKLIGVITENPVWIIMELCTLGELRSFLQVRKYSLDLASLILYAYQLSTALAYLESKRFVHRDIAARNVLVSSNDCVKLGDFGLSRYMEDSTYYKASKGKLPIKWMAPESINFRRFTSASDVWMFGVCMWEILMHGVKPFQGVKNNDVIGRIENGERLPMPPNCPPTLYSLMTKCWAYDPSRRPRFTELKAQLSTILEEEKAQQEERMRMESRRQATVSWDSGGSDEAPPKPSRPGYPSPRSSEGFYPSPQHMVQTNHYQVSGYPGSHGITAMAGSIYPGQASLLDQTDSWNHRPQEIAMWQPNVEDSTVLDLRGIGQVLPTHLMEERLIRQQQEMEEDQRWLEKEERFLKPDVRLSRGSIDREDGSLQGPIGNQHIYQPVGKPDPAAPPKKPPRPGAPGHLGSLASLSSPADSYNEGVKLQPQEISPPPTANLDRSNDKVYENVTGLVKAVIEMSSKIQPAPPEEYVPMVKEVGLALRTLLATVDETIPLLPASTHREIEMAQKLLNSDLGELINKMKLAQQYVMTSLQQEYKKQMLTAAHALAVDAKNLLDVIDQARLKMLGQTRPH
Excerpt: To generate JHH-4-FAK-HiBiT cells for the FAK degradation assay, JHH-4 cells (Japanese Collection of Research Biosources Cell Bank, Japan) were transfected with ribonucleoprotein reagents to introduce, by CRISPR-Cas9 editing, the homozygous knock-in of a HiBiT tag (Promega Corporation, Madison, WI) to the C-terminus of the FAK gene in its natural genomic locus. Clonal cell populations were established by expanding single cells after CRISPR-Cas9 editing, with a clonal cell line named JHH-4-FAK-HiBiT clone d01 confirmed by next generation DNA sequencing to contain the expected HiBiT edited FAK gene and was selected for FAK degradation screening. Cells were selected and maintained in complete DMEM media (DMEM, 10% Heat Inactivated FBS, and Non-Essential Amino Acids at 37° C. and 5% CO2). Cells were passaged every 3-4 days by reseeding 0.5×10^6 cells in a T75 flask.
Cells were dispensed into 384-well white plates (Corning #3570, NY) that were pre-spotted with compounds using an acoustic dispenser (Echo acoustic transfer system, Beckman Coulter Life Sciences, Carlsbad, CA) as a 10-point dose response curve with a 3-fold dilution starting at 1 μM and including a DMSO control. Twenty-five microliters of media containing 2000 JHH-4-FAK-HiBiT Clone d01 cells was dispensed per well. Assay plates were incubated at 37° C. with 5% CO2 for two hours. After incubation, 25 μL of Nano-Glo HiBiT Lytic Reagent Working Solution (Promega Corporation, Madison, WI) was added to each well and incubated at room temperature for 10 minutes protected from light. After 10 minutes, luminescence was read on a PHERAstar luminometer (BMG Labtech, Cary, NC).
To determine the half-maximal effective concentration (EC50) values for FAK-HiBIT degradation, a four parameter logistic model was used: (Sigmoidal Dose-Response Model)(FIT=(A+((B−A)/1+((C/x)^D)))) where C is the inflection point (EC50), D is the Hill slope, and A and B are the low and high limits of the fit respectively). The lower limit of the fit (value A) is referred to as Ymin. The maximum limit constraint, Ymax, was derived using DMSO control. The curves were processed and evaluated using Dotmatics Atlas (Insightful Science, LLC, Boston, MA).

Row | DC50 [2] | FAK HiBiT Ymin [2] | SMILES | EC50 [1] | CAL-51 Prolif Ymin [1]
1 | ≥ 1000 nM | 87.67 | COc1cc(C2CC2)cnc1-c1cc(N2CC(F)C2)nc2c1cnn2Cc1ccc2c(c1)CN(C1CCC(=O)NC1=O)C2=O (stereo not shown) [Example 135, 3-(5-{[4-(5-cyclopropyl-3-methoxypyridin-2-yl)-6-(3-fluoroazetidin-1-yl)-1H-pyrazolo[3,4-b]pyridin-1-yl]methyl}-1-oxo-2,3-dihydro-1H-isoindol-2-yl)piperidine-2,6-dione] | ≥ 10000 nM | 84.14
2 | 0.38 nM | 7.63 | O=C1CC[C@H](N2Cc3cc(Cn4ccc5c(-c6ncc(C(F)(F)F)cc6Cl)nc(N6CC(F)C6)nc54)ccc3C2=O)C(=O)N1 [Example 28, (S)-3-(5-((4-(3-chloro-5-(trifluoromethyl)pyridin-2-yl)-2-(3-fluoroazetidin-1-yl)-7H-pyrrolo[2,3-d]pyrimidin-7-yl)methyl)-1-oxoisoindolin-2-yl)piperidine-2,6-dione] | 0.45 nM | 25.69
3 | 2.23 nM | 5.82 | Cc1cc(Cl)cnc1-c1cc(N2CC(F)C2)nc2c1cnn2Cc1ccc2c(c1)CN([C@H]1CCC(=O)NC1=O)C2=O [Example 50, (3S)-3-(5-{[4-(5-chloro-3-methylpyridin-2-yl)-6-(3-fluoroazetidin-1-yl)-1H-pyrazolo[3,4-b]pyridin-1-yl]methyl}-1-oxo-2,3-dihydro-1H-isoindol-2-yl)piperidine-2,6-dione] | 2.12 nM | 27.72
4 | 169 nM | 89.33 | O=C1CCC(N2Cc3cc(Cn4ncc5c(-c6ncc(C(F)(F)F)cc6Cl)cc(NC6COC6)nc54)ccc3C2=O)C(=O)N1 (stereo not shown) [Example 126, 3-[5-({4-[3-chloro-5-(trifluoromethyl)pyridin-2-yl]-6-[(oxetan-3-yl)amino]-1H-pyrazolo[3,4-b]pyridin-1-yl}methyl)-1-oxo-2,3-dihydro-1H-isoindol-2-yl]piperidine-2,6-dione] | 0.47 nM | 91.32
5 | 292 nM | 58.00 | CN1CCC(Nc2cc(-c3ncc(C(F)(F)F)cc3Cl)c3cnn(Cc4ccc5c(c4)CN(C4CCC(=O)NC4=O)C5=O)c3n2)C1 (stereo not shown) [Example 128, 3-[5-({4-[3-chloro-5-(trifluoromethyl)pyridin-2-yl]-6-[(1-methylpyrrolidin-3-yl)amino]-1H-pyrazolo[3,4-b]pyridin-1-yl}methyl)-1-oxo-2,3-dihydro-1H-isoindol-2-yl]piperidine-2,6-dione] | 191 nM | 83.49
6 | ≥ 1000 nM | 82.45 | O=C1CCC(N2Cc3cc(Cn4ncc5c(-c6ncc(C(F)(F)F)cc6Cl)cc(N[C@@H]6CCOC6)nc54)ccc3C2=O)C(=O)N1 (stereo partly drawn) [Example 133, 3-[5-({4-[3-chloro-5-(trifluoromethyl)pyridin-2-yl]-6-{[(3R)-oxolan-3-yl]amino}-1H-pyrazolo[3,4-b]pyridin-1-yl}methyl)-1-oxo-2,3-dihydro-1H-isoindol-2-yl]piperidine-2,6-dione] | 23.3 nM | 84.63
7 | 3.41 nM | 8.26 | Cc1cnc(-c2cc(N3CC(F)C3)nc3c2cnn3Cc2ccc3c(c2)CN(C2CCC(=O)NC2=O)C3=O)c(Cl)c1 (stereo not shown) [Example 57, 3-(5-{[4-(3-chloro-5-methylpyridin-2-yl)-6-(3-fluoroazetidin-1-yl)-1H-pyrazolo[3,4-b]pyridin-1-yl]methyl}-1-oxo-2,3-dihydro-1H-isoindol-2-yl)piperidine-2,6-dione] | 1.51 nM | 25.51
8 | 0.82 nM | 9.44 | CCOc1cnc(-c2cc(N3CC(F)C3)nc3c2cnn3Cc2ccc3c(c2)CN([C@H]2CCC(=O)NC2=O)C3=O)c(C(F)(F)F)c1 [Example 32, (3S)-3-[5-({4-[5-ethoxy-3-(trifluoromethyl)pyridin-2-yl]-6-(3-fluoroazetidin-1-yl)-1H-pyrazolo[3,4-b]pyridin-1-yl}methyl)-1-oxo-2,3-dihydro-1H-isoindol-2-yl]piperidine-2,6-dione] | 0.44 nM | 9.16
9 | 2.23 nM | 10.32 | O=C1CC[C@H](N2Cc3cc(Cn4ncc5c(-c6ncc(F)cc6Cl)cc(N6CC(F)C6)nc54)ccc3C2=O)C(=O)N1 [Example 51, (3S)-3-(5-{[4-(3-chloro-5-fluoropyridin-2-yl)-6-(3-fluoroazetidin-1-yl)-1H-pyrazolo[3,4-b]pyridin-1-yl]methyl}-1-oxo-2,3-dihydro-1H-isoindol-2-yl)piperidine-2,6-dione] | 1.49 nM | 30.14
10 | 0.55 nM | 9.43 | CC(C)Nc1nc2c(cnn2Cc2ccc3c(c2)CN([C@H]2CCC(=O)NC2=O)C3=O)c(-c2ncc(F)cc2Cl)c1F (single isomer, unassigned) [Example 9] | 0.46 nM | 22.89
11 | 3.72 nM | 10.37 | O=C1CCC(N2Cc3cc(Cn4ncc5c(-c6ncc(F)cc6Cl)cc(N6CC(F)C6)nc54)ccc3C2=O)C(=O)N1 (stereo not shown) [Example 56, 3-(5-{[4-(3-chloro-5-fluoropyridin-2-yl)-6-(3-fluoroazetidin-1-yl)-1H-pyrazolo[3,4-b]pyridin-1-yl]methyl}-1-oxo-2,3-dihydro-1H-isoindol-2-yl)piperidine-2,6-dione] | 1.67 nM | 26.66
12 | 20 nM | 17.46 | CCOc1ccc(-c2cc(N3CC[C@](C)(O)C3)nc3c2cnn3Cc2ccc3c(c2)CN(C2CCC(=O)NC2=O)C3=O)c(Cl)c1 (stereo partly drawn) [Example 96, 3-(5-{[4-(2-chloro-4-ethoxyphenyl)-6-[(3S)-3-hydroxy-3-methylpyrrolidin-1-yl]-1H-pyrazolo[3,4-b]pyridin-1-yl]methyl}-1-oxo-2,3-dihydro-1H-isoindol-2-yl)piperidine-2,6-dione] | 1.88 nM | 45.73
13 | 1.87 nM | 8.06 | O=C1CCC(N2Cc3cc(Cn4ncc5c(-c6ccc(C(F)(F)F)cc6Cl)cc(N6CC(F)C6)nc54)ccc3C2=O)C(=O)N1 (stereo not shown) [Example 48, 3-[5-({4-[2-chloro-4-(trifluoromethyl)phenyl]-6-(3-fluoroazetidin-1-yl)-1H-pyrazolo[3,4-b]pyridin-1-yl}methyl)-1-oxo-2,3-dihydro-1H-isoindol-2-yl]piperidine-2,6-dione] | 0.52 nM | 19.89
